Source: PubChem BioAssay (NCI)
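Tested at 5 concentrations; 48 h exposure; 96-well plates; endpoints linearly interpolated, else capped at highest concentration. TGI denotes the concentration required for complete inhibition of growth.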

How the values were obtained:
Assay in all cases: NCI-60 cell line screen, 48 h
[1] = system: A498 renal
[2] = system: SW-620 colon
[3] = system: KM12 colon
[4] = system: SNB-75 CNS
[5] = system: U251 CNS
[6] = system: HOP-62 NSCLC
[7] = system: K-562 leukemia
[8] = system: SK-MEL-2 melanoma

Measured: TGI

Cc1c(C(=O)C/C(=N/NC(=O)C[N+](C)(C)C)C(=O)Nc2ccc(Cl)cc2)[n+](=O)c2ccccc2n1O
> 100 µM: all assays above
